Results taken from patent US20110034557A1, “ANTIMICROBIAL COMPOSITIONS AND USES THEREOF” (MODULAR GENETICS, INC., priority 2009, published 2011).
Residues, ends and D or L forms follow the SMILES beside them.

Test system: S. aureus (ATCC 6538)
Experiment: Disk assay of growth inhibition of S. aureus on agar plates
Type: cell-based, Staphylococcus aureus
Method: The ability of FA-Glu to inhibit the growth or kill S. aureus (ATCC 6538) was examined.
S. aureus was grown in liquid culture in either Tryptic Soy Broth (TSB; Sigma), which contains casein peptone 17 g/l, soya peptone 3 g/l, sodium chloride 5 g/l, dipotassium hydrogen phosphate 2.5 g/l, and glucose 2.5 g/l or M9YE (disodium hydrogen phosphate 6 g/l, monopotassium phosphate 3 g/l, sodium chloride 0.5 g/l, ammonium chloride 1 g/l, yeast extract 3 g/l, glucose 5 g/l, and casamino acids 10 g/l) at 30° C. Disk assays were carried out on M9YE plates (M9YE liquid media plus 15 g/l agar) and YPD plates (peptone 20 g/l, yeast extract 10 g/l, glucose 20 g/l, agar 15 g/l). S. aureus was plated out evenly using a sterile cotton swab. Blank Paper disks 6 mm were placed into a sterile container and then different dilutions of FA-Glu (25 ug, 100 ug, 300 ug) that had been re-suspended in a diluted aqueous solution containing ammonium hydroxide (pH 10.2) were added to the disks. The disks were allowed to absorb and dry. Using sterile tweezers, the disks were placed onto the plates that had been swabbed with Staphylococcus aureus. They were then incubated at 28° C. over approximately 65 hours.
Disk assays were repeated as above using a commercially available acyl amino acid, cocoyl glutamate (Ajinomoto, Japan).

Compound	halo formation around disk (control experiment) (300 ug absorbed onto a disk)	regrowth in halos (disk assay plates)	halo formation around disk (disk assays repeated as above)	halo size relative to FA-Glu (same concentration and same conditions as FA-Glu)
CC(C)CCCCCCCCC[C@@H]1CC(=O)N[C@@H](CCC(=O)O)C(=O)N[C@@H](CC(C)C)C(=O)N[C@H](CC(C)C)C(=O)N[C@@H](C(C)C)C(=O)N[C@@H](CC(=O)O)C(=O)N[C@H](CC(C)C)C(=O)N[C@@H](CC(C)C)C(=O)O1 [surfactin, reference compound] (HELM PEPTIDE1{E.L.[dL].V.D.[dL].L}|CHEM1{[CC(C)CCCCCCCCC[C@H](CC(=O)[*:1])O[*:2]]}$PEPTIDE1,CHEM1,1:R1-1:R1|PEPTIDE1,CHEM1,7:R2-1:R2$$$V2.0)	produced a halo, but there was cell growth within the halo	–	–	–
cocoyl glutamate [reference compound]	–	regrowth occurred	produced a halo	larger than halos observed using FA-Glu
